Experimental data: ChEMBL document CHEMBL1155953, “Synthesis and biological evaluation of C-12' substituted vinflunine derivatives” (Bioorg Med Chem Lett, 2008)

Test system: A549
Test: Cytotoxicity against human A549 cells by SRB assay
Type: functional, cell-based

SMILES | IC50 [nM]
CC[C@]12C=CCN3CC[C@@]4(c5cc([C@@]6(C(=O)OC)C[C@H]7C[C@@H](C(C)(F)F)CN(Cc8c6[nH]c6ccc(-c9ccsc9)cc86)C7)c(OC)cc5N(C)[C@H]4[C@@](O)(C(=O)OC)[C@@H]1OC(C)=O)[C@@H]32 | 3000
CC[C@]12C=CCN3CC[C@@]4(c5cc([C@@]6(C(=O)OC)C[C@H]7C[C@@H](C(C)(F)F)CN(Cc8c6[nH]c6ccc(CNCCO)cc86)C7)c(OC)cc5N(C)[C@H]4[C@@](O)(C(=O)OC)[C@@H]1OC(C)=O)[C@@H]32 | 95500
CCCCc1ccc2[nH]c3c(c2c1)CN1C[C@H](C[C@@H](C(C)(F)F)C1)C[C@]3(C(=O)OC)c1cc2c(cc1OC)N(C)[C@H]1[C@@](O)(C(=O)OC)[C@H](OC(C)=O)[C@]3(CC)C=CCN4CC[C@]21[C@@H]43 | 1880
CC[C@]12C=CCN3CC[C@@]4(c5cc([C@@]6(C(=O)OC)C[C@H]7C[C@@H](C(C)(F)F)CN(CCc8c6[nH]c6ccc(-c9ccccc9)cc86)C7)c(OC)cc5N(C)[C@H]4[C@@](O)(C(=O)OC)[C@@H]1OC(C)=O)[C@@H]32 | 2160
CC[C@]12C=CCN3CC[C@@]4(c5cc([C@@]6(C(=O)OC)C[C@H]7C[C@@H](C(C)(F)F)CN(Cc8c6[nH]c6ccc(CNc9ccc(OC)cc9)cc86)C7)c(OC)cc5N(C)[C@H]4[C@@](O)(C(=O)OC)[C@@H]1OC(C)=O)[C@@H]32 | 3520
CC[C@]12C=CCN3CC[C@@]4(c5cc([C@@]6(C(=O)OC)C[C@H]7C[C@@H](C(C)(F)F)CN(Cc8c6[nH]c6ccc(C(=O)C9CC9)cc86)C7)c(OC)cc5N(C)[C@H]4[C@@](O)(C(=O)OC)[C@@H]1OC(C)=O)[C@@H]32 | 4450
CC[C@]12C=CCN3CC[C@@]4(c5cc([C@@]6(C(=O)OC)C[C@H]7C[C@@H](C(C)(F)F)CN(Cc8c6[nH]c6ccc(NC(=O)OC)cc86)C7)c(OC)cc5N(C)[C@H]4[C@@](O)(C(=O)OC)[C@@H]1OC(C)=O)[C@@H]32 | 420
CC[C@]12C=CCN3CC[C@@]4(c5cc([C@@]6(C(=O)OC)C[C@H]7C[C@@H](C(C)(F)F)CN(Cc8c6[nH]c6ccc(NC(=O)N(C)C)cc86)C7)c(OC)cc5N(C)[C@H]4[C@@](O)(C(=O)OC)[C@@H]1OC(C)=O)[C@@H]32 | > 100000
CC[C@]12C=CCN3CC[C@@]4(c5cc([C@@]6(C(=O)OC)C[C@@H]7C[C@@H](C(C)(F)F)CN(Cc8c6[nH]c6ccccc86)C7)c(OC)cc5N(C)[C@H]4[C@@](O)(C(=O)OC)[C@@H]1OC(C)=O)[C@@H]32 [VINFLUNINE] | 80
CC[C@]12C=CCN3CC[C@@]4(c5cc([C@@]6(C(=O)OC)C[C@H]7C[C@@H](C(C)(F)F)CN(Cc8c6[nH]c6ccc(NC(=O)NC)cc86)C7)c(OC)cc5N(C)[C@H]4[C@@](O)(C(=O)OC)[C@@H]1OC(C)=O)[C@@H]32 | 35100
CCc1ccc2[nH]c3c(c2c1)CCN1C[C@H](C[C@@H](C(C)(F)F)C1)C[C@]3(C(=O)OC)c1cc2c(cc1OC)N(C)[C@H]1[C@@](O)(C(=O)OC)[C@H](OC(C)=O)[C@]3(CC)C=CCN4CC[C@]21[C@@H]43 | 920
CC[C@]12C=CCN3CC[C@@]4(c5cc([C@@]6(C(=O)OC)C[C@H]7C[C@@H](C(C)(F)F)CN(CCc8c6[nH]c6ccc(C#N)cc86)C7)c(OC)cc5N(C)[C@H]4[C@@](O)(C(=O)OC)[C@@H]1OC(C)=O)[C@@H]32 | 290
CC[C@]12C=CCN3CC[C@@]4(c5cc([C@@]6(C(=O)OC)C[C@H]7C[C@@H](C(C)(F)F)CN(Cc8c6[nH]c6ccc(NC)cc86)C7)c(OC)cc5N(C)[C@H]4[C@@](O)(C(=O)OC)[C@@H]1OC(C)=O)[C@@H]32 | 6910
CC[C@]12C=CCN3CC[C@@]4(c5cc([C@@]6(C(=O)OC)C[C@H]7C[C@@H](C(C)(F)F)CN(Cc8c6[nH]c6ccc(-c9ccccc9Cl)cc86)C7)c(OC)cc5N(C)[C@H]4[C@@](O)(C(=O)OC)[C@@H]1OC(C)=O)[C@@H]32 | 1010
CC[C@]12C=CCN3CC[C@@]4(c5cc([C@@]6(C(=O)OC)C[C@H]7C[C@@H](C(C)(F)F)CN(Cc8c6[nH]c6ccc(NC(=O)C(Cl)Cl)cc86)C7)c(OC)cc5N(C)[C@H]4[C@@](O)(C(=O)OC)[C@@H]1OC(C)=O)[C@@H]32 | 200
CC[C@]12C=CCN3CC[C@@]4(c5cc([C@@]6(C(=O)OC)C[C@H]7C[C@@H](C(C)(F)F)CN(CCc8c6[nH]c6ccc(N(C)C)cc86)C7)c(OC)cc5N(C)[C@H]4[C@@](O)(C(=O)OC)[C@@H]1OC(C)=O)[C@@H]32 | 220
CC[C@]12C=CCN3CC[C@@]4(c5cc([C@@]6(C(=O)OC)C[C@H]7C[C@@H](C(C)(F)F)CN(Cc8c6[nH]c6ccc(N=[N+]=[N-])cc86)C7)c(OC)cc5N(C)[C@H]4[C@@](O)(C(=O)OC)[C@@H]1OC(C)=O)[C@@H]32 | 160
CC[C@]12C=CCN3CC[C@@]4(c5cc([C@@]6(C(=O)OC)C[C@H]7C[C@@H](C(C)(F)F)CN(CCc8c6[nH]c6ccc(NS(C)(=O)=O)cc86)C7)c(OC)cc5N(C)[C@H]4[C@@](O)(C(=O)OC)[C@@H]1OC(C)=O)[C@@H]32 | 320
C#Cc1ccc2[nH]c3c(c2c1)CCN1C[C@H](C[C@@H](C(C)(F)F)C1)C[C@]3(C(=O)OC)c1cc2c(cc1OC)N(C)[C@H]1[C@@](O)(C(=O)OC)[C@H](OC(C)=O)[C@]3(CC)C=CCN4CC[C@]21[C@@H]43 | 50

SMILES | IC50 [nM]
CCNC(=S)Nc1ccc2[nH]c3c(c2c1)CN1C[C@H](C[C@@H](C(C)(F)F)C1)C[C@]3(C(=O)OC)c1cc2c(cc1OC)N(C)[C@H]1[C@@](O)(C(=O)OC)[C@H](OC(C)=O)[C@]3(CC)C=CCN4CC[C@]21[C@@H]43 | 5680
CCOC(=O)c1ccc2[nH]c3c(c2c1)CN1C[C@H](C[C@@H](C(C)(F)F)C1)C[C@]3(C(=O)OC)c1cc2c(cc1OC)N(C)[C@H]1[C@@](O)(C(=O)OC)[C@H](OC(C)=O)[C@]3(CC)C=CCN4CC[C@]21[C@@H]43 | 1030
CC[C@]12C=CCN3CC[C@@]4(c5cc([C@@]6(C(=O)OC)C[C@H]7C[C@@H](C(C)(F)F)CN(Cc8c6[nH]c6ccc(-c9ccc(F)cc9F)cc86)C7)c(OC)cc5N(C)[C@H]4[C@@](O)(C(=O)OC)[C@@H]1OC(C)=O)[C@@H]32 | 1020
CCCCNCc1ccc2[nH]c3c(c2c1)CN1C[C@H](C[C@@H](C(C)(F)F)C1)C[C@]3(C(=O)OC)c1cc2c(cc1OC)N(C)[C@H]1[C@@](O)(C(=O)OC)[C@H](OC(C)=O)[C@]3(CC)C=CCN4CC[C@]21[C@@H]43 | 1740
CC[C@]12C=CCN3CC[C@@]4(c5cc([C@@]6(C(=O)OC)C[C@H]7C[C@@H](C(C)(F)F)CN(Cc8c6[nH]c6ccc(Nc9ccccc9)cc86)C7)c(OC)cc5N(C)[C@H]4[C@@](O)(C(=O)OC)[C@@H]1OC(C)=O)[C@@H]32 | 1860
CCC(=O)c1ccc2[nH]c3c(c2c1)CN1C[C@H](C[C@@H](C(C)(F)F)C1)C[C@]3(C(=O)OC)c1cc2c(cc1OC)N(C)[C@H]1[C@@](O)(C(=O)OC)[C@H](OC(C)=O)[C@]3(CC)C=CCN4CC[C@]21[C@@H]43 | 17400
CC[C@]12C=CCN3CC[C@@]4(c5cc([C@@]6(C(=O)OC)C[C@H]7C[C@@H](C(C)(F)F)CN(Cc8c6[nH]c6ccc(C(=O)OC(C)C)cc86)C7)c(OC)cc5N(C)[C@H]4[C@@](O)(C(=O)OC)[C@@H]1OC(C)=O)[C@@H]32 | 3260
CC[C@]12C=CCN3CC[C@@]4(c5cc([C@@]6(C(=O)OC)C[C@H]7C[C@@H](C(C)(F)F)CN(Cc8c6[nH]c6ccc(-c9ccc(C#N)cc9)cc86)C7)c(OC)cc5N(C)[C@H]4[C@@](O)(C(=O)OC)[C@@H]1OC(C)=O)[C@@H]32 | 2500
CC[C@]12C=CCN3CC[C@@]4(c5cc([C@@]6(C(=O)OC)C[C@H]7C[C@@H](C(C)(F)F)CN(Cc8c6[nH]c6ccc(C(=O)OCc9ccccc9)cc86)C7)c(OC)cc5N(C)[C@H]4[C@@](O)(C(=O)OC)[C@@H]1OC(C)=O)[C@@H]32 | 280
CC[C@]12C=CCN3CC[C@@]4(c5cc([C@@]6(C(=O)OC)C[C@H]7C[C@@H](C(C)(F)F)CN(Cc8c6[nH]c6ccc(CNCCN9CCOCC9)cc86)C7)c(OC)cc5N(C)[C@H]4[C@@](O)(C(=O)OC)[C@@H]1OC(C)=O)[C@@H]32 | > 100000
CC[C@]12C=CCN3CC[C@@]4(c5cc([C@@]6(C(=O)OC)C[C@H]7C[C@@H](C(C)(F)F)CN(Cc8c6[nH]c6ccc(NC(=S)NC9CC9)cc86)C7)c(OC)cc5N(C)[C@H]4[C@@](O)(C(=O)OC)[C@@H]1OC(C)=O)[C@@H]32 | 27500
CC[C@]12C=CCN3CC[C@@]4(c5cc([C@@]6(C(=O)OC)C[C@H]7C[C@@H](C(C)(F)F)CN(Cc8c6[nH]c6ccc(-c9ccc(Cl)cc9)cc86)C7)c(OC)cc5N(C)[C@H]4[C@@](O)(C(=O)OC)[C@@H]1OC(C)=O)[C@@H]32 | 1170
CC[C@]12C=CCN3CC[C@@]4(c5cc([C@@]6(C(=O)OC)C[C@H]7C[C@@H](C(C)(F)F)CN(CCc8c6[nH]c6ccc(C(=O)OC)cc86)C7)c(OC)cc5N(C)[C@H]4[C@@](O)(C(=O)OC)[C@@H]1OC(C)=O)[C@@H]32 | 8730
CC[C@]12C=CCN3CC[C@@]4(c5cc([C@@]6(C(=O)OC)C[C@H]7C[C@@H](C(C)(F)F)CN(CCc8c6[nH]c6ccc(N9CCCC9)cc86)C7)c(OC)cc5N(C)[C@H]4[C@@](O)(C(=O)OC)[C@@H]1OC(C)=O)[C@@H]32 | 640
CC[C@]12C=CCN3CC[C@@]4(c5cc([C@@]6(C(=O)OC)C[C@H]7C[C@@H](C(C)(F)F)CN(Cc8c6[nH]c6ccc(NC(=O)N9CCOCC9)cc86)C7)c(OC)cc5N(C)[C@H]4[C@@](O)(C(=O)OC)[C@@H]1OC(C)=O)[C@@H]32 | > 100000
CC[C@]12C=CCN3CC[C@@]4(c5cc([C@@]6(C(=O)OC)C[C@H]7C[C@@H](C(C)(F)F)CN(Cc8c6[nH]c6ccc(CNCCCN9CCOCC9)cc86)C7)c(OC)cc5N(C)[C@H]4[C@@](O)(C(=O)OC)[C@@H]1OC(C)=O)[C@@H]32 | > 100000
CC[C@]12C=CCN3CC[C@@]4(c5cc([C@@]6(C(=O)OC)C[C@H]7C[C@@H](C(C)(F)F)CN(Cc8c6[nH]c6ccc(CN9CCOCC9)cc86)C7)c(OC)cc5N(C)[C@H]4[C@@](O)(C(=O)OC)[C@@H]1OC(C)=O)[C@@H]32 | 3930
CC[C@]12C=CCN3CC[C@@]4(c5cc([C@@]6(C(=O)OC)C[C@H]7C[C@@H](C(C)(F)F)CN(Cc8c6[nH]c6ccc(-c9ccc(F)cc9)cc86)C7)c(OC)cc5N(C)[C@H]4[C@@](O)(C(=O)OC)[C@@H]1OC(C)=O)[C@@H]32 | 2560
C=CCNc1ccc2[nH]c3c(c2c1)CN1C[C@H](C[C@@H](C(C)(F)F)C1)C[C@]3(C(=O)OC)c1cc2c(cc1OC)N(C)[C@H]1[C@@](O)(C(=O)OC)[C@H](OC(C)=O)[C@]3(CC)C=CCN4CC[C@]21[C@@H]43 | 510
